Test results as given in PMC6684654 (Nature Communications, 2019).
≈ marks a conversion by molar mass, not a printed value.

Legend:
Assay type in all cases: cell-based
[1] = tested on: NDM-1 K. pneumoniae XJ155019; assay: Kirby Bauer disc diffusion
Excerpt: (§1) Supplementary Ta b l e 2. Identification and anti biotic susceptibility of NDM-1-producing K. pneumonia strains.
(§2) Antibiotics NDM-1 NDM-1 NDM-1 NDM-1 […]
(§3) Cefoperazone/ sul bact am KB 32 (S) 7 (R) 7 (R) 7 (R) 7 (R)
(§4) Nitrofurantoi n KB 21 (S) 7 (R) 9 (R) 10 (R) 9 (R) […]
(§5) R, resistant; S, sensitive; M IC , minimum inhibitory concentration; KB, Kirb y Baue r disc diffusion method .
(§6) The unit of M IC is “μg/mL”. The unit of KB is “mm”.

[2] = tested on: NDM-1 K. pneumoniae XJ155018; assay: Kirby Bauer disc diffusion
Excerpt: as §1, §2, §3, §4, §5, §6

K. pneumoniae ATCC13883 [3] = assay: Kirby Bauer disc diffusion
Excerpt: as §1, §2, §3, §4, §5, §6

[4] = tested on: NDM-1 K. pneumoniae XJ155017; assay: Kirby Bauer disc diffusion
Excerpt: as §1, §2, §3, §4, §5, §6

[5] = tested on: NDM-1 K. pneumoniae XJ155020; assay: Kirby Bauer disc diffusion
Excerpt: as §1, §2, §3, §4, §5, §6

NDM-1 E. coli XJ141026 [6] = assay: Kirby Bauer disc diffusion
Excerpt: (§7) Supplementary Table 1. Identification and antibiotic susceptibility of NDM-1-producing E. coli strains. […]
(§8) Cefoperazone/ sul bact am KB — — 7 (R) 7 (R) 7 (R)
(§9) Nitrofurantoi n KB — — 14 (R) 17 (R) 19 (S) […]
(§10) R, resistant; S, sensitive; M IC , minimum inhibitory concentration; KB, Kirb y Bauer disc diffusion method.
(§11) The unit of M IC is “ μ g/ mL”. The unit of KB is “ mm” .

NDM-1 E. coli XJ141015 [7] = assay: Kirby Bauer disc diffusion
Excerpt: as §7, §8, §9, §10, §11

NDM-1 E. coli XJ141047 [8] = assay: Kirby Bauer disc diffusion
Excerpt: as §7, §8, §9, §10, §11

[9] = tested on: NDM-1 K. pneumoniae XJ155019; assay: Antibiotic susceptibility (MIC), automated identification system; details: Supplementary Table 2; for MIC: Klebsiella pneumoniae
Excerpt: (§12) Clinical isolate strains were identified and screened by the Phoenix 100 automated bacterial identification system to rapidly detect antimicrobial resistance. Total DNA was extracted by the TIANamp Bacteria DNA Kit according to the manufacturer’s protocol. The presence of blaNDM-1 was confirmed using a diagnostic kit for NDM-1 (Puruikang Bio Inc., Shenzhen, China) based on fluorescent quantitative polymerase chain reaction assay. According to the instruction, Ct values of less than 37 were considered positive.

NDM-1 E. coli XJ141026 [10] = assay: as above; details: Supplementary Table 1; for MIC: Escherichia coli
Excerpt: as §12

[11] = tested on: NDM-1 K. pneumoniae XJ155018; assay: as above; details: Supplementary Table 2; for MIC: Klebsiella pneumoniae
Excerpt: as §12

K. pneumoniae ATCC13883 [12] = assay: as above; details: Supplementary Table 2; for MIC: Klebsiella pneumoniae, ATCC13883
Excerpt: as §12

NDM-1 E. coli XJ141015 [13] = assay: as above; details: Supplementary Table 1; for MIC: Escherichia coli
Excerpt: as §12

[14] = tested on: NDM-1 K. pneumoniae XJ155017; assay: as above; details: Supplementary Table 2; for MIC: Klebsiella pneumoniae
Excerpt: as §12

E. coli ATCC25922 [15] = assay: as above; details: Supplementary Table 1; for MIC: Escherichia coli, ATCC25922
Excerpt: as §12

NDM-1 E. coli XJ141047 [16] = assay: as above; details: Supplementary Table 1; for MIC: Escherichia coli
Excerpt: as §12

[17] = tested on: NDM-1 K. pneumoniae XJ155020; assay: as above; details: Supplementary Table 2; for MIC: Klebsiella pneumoniae
Excerpt: as §12

[18] = tested on: NDM-1 K. pneumoniae XJ155019; assay: MIC, broth microdilution; details: Klebsiella pneumoniae, 16 h
Excerpt: (§13) MIC values were identified through microdilution in sterilized 96-well polypropylene microtiter plates according to the broth microdilution guideline of the Clinical and Laboratory Standards Institute[30]. The test medium was Mueller–Hinton broth (MHB), and the strain concentrations were adjusted to 5 × 10^5 CFU/mL.

NDM-1 E. coli XJ141026 [19] = assay: MIC, broth microdilution; details: Escherichia coli, 16 h
Excerpt: as §13

[20] = tested on: NDM-1 K. pneumoniae XJ155018; assay: MIC, broth microdilution; details: Klebsiella pneumoniae, 16 h
Excerpt: as §13

E. coli ATCC35218 = assay: MIC, broth microdilution; details: Escherichia coli, ATCC35218; MHB, 5 × 10^5 CFU/mL, 16 h, 37 °C; read-out: MIC
Excerpt: as §13

K. pneumoniae ATCC13883 [21] = assay: MIC, broth microdilution; details: Klebsiella pneumoniae, ATCC13883; MHB, 5 × 10^5 CFU/mL, 16 h, 37 °C; read-out: MIC
Excerpt: as §13

NDM-1 E. coli XJ141015 [22] = assay: MIC, broth microdilution; details: Escherichia coli, 16 h
Excerpt: as §13

[23] = tested on: NDM-1 K. pneumoniae XJ155017; assay: MIC, broth microdilution; details: Klebsiella pneumoniae, 16 h
Excerpt: as §13

E. coli ATCC25922 [24] = assay: MIC, broth microdilution; details: Escherichia coli, ATCC25922; MHB, 5 × 10^5 CFU/mL, 16 h, 37 °C; read-out: MIC
Excerpt: as §13

NDM-1 E. coli XJ141047 [25] = assay: MIC, broth microdilution; details: Escherichia coli, 16 h
Excerpt: as §13

[26] = tested on: NDM-1 K. pneumoniae XJ155020; assay: MIC, broth microdilution; details: Klebsiella pneumoniae, 16 h
Excerpt: as §13

[27] = Klebsiella pneumoniae, read-out: KB disc diffusion
[28] = Escherichia coli, read-out: KB disc diffusion
[29] = MHB, 5 × 10^5 CFU/mL, 37 °C, read-out: MIC

| SMILES | MIC [9] [µg/mL] | susceptibility class (MIC) [9] | MIC (NDM-1 E. coli XJ141026 [10]) [µg/mL] | susceptibility class (MIC) (NDM-1 E. coli XJ141026 [10]) | MIC [11] [µg/mL] | susceptibility class (MIC) [11] | MIC (K. pneumoniae ATCC13883 [12]) [µg/mL] | susceptibility class (MIC) (K. pneumoniae ATCC13883 [12]) | MIC (NDM-1 E. coli XJ141015 [13]) [µg/mL] | susceptibility class (MIC) (NDM-1 E. coli XJ141015 [13]) | MIC [14] [µg/mL] | susceptibility class (MIC) [14] | MIC (E. coli ATCC25922 [15]) [µg/mL] | susceptibility class (MIC) (E. coli ATCC25922 [15]) | MIC (NDM-1 E. coli XJ141047 [16]) [µg/mL] | susceptibility class (MIC) (NDM-1 E. coli XJ141047 [16]) | MIC [17] [µg/mL] | susceptibility class (MIC) [17] | MIC (E. coli ATCC35218) [µg/mL] | MIC (K. pneumoniae ATCC13883 [21]) [µg/mL] | also measured |
| --- | --- | --- | --- | --- | --- | --- | --- | --- | --- | --- | --- | --- | --- | --- | --- | --- | --- | --- | --- | --- | --- |
| O=C1CN(/N=C/c2ccc([N+](=O)[O-])o2)C(=O)N1 [Nitrofurantoin] |  |  |  |  |  |  |  |  |  |  |  |  |  |  |  |  |  |  |  |  | susceptibility class (KB) [1]: R; Kb [1, 27]: 10 mM; susceptibility class (KB) [2]: R; inhibition zone diameter [2, 27]: 9 mM; susceptibility class (KB) (K. pneumoniae ATCC13883 [3]): S; inhibition zone diameter (K. pneumoniae ATCC13883 [3]; Klebsiella pneumoniae, ATCC13883, read-out: KB disc diffusion): 21 mM; susceptibility class (KB) [4]: R; inhibition zone diameter (Kirby-Bauer disc diffusion) [4, 27]: 7 mM; susceptibility class (KB) [5]: R; disc diffusion inhibition zone diameter [5, 27]: 9 mM; susceptibility class (KB) (NDM-1 E. coli XJ141026 [6]): R; Kb (NDM-1 E. coli XJ141026 [6]; [28]): 17 mM; susceptibility class (KB) (NDM-1 E. coli XJ141015 [7]): R; susceptibility class (KB) (NDM-1 E. coli XJ141047 [8]): S; inhibition zone diameter (NDM-1 E. coli XJ141047 [8]; [28]): 19 mM |
| CCN1CCN(C(=O)N[C@@H](C(=O)N[C@@H]2C(=O)N3[C@@H]2SC(C)(C)[C@@H]3C(=O)O)c2ccccc2)C(=O)C1=O [Piperacillin] | > 64 | R | > 64 | R | > 64 | R | 8 (≈ 15.5 µM) | S | > 64 | R | > 64 | R | ≤ 4 | S | > 64 | R | > 64 | R | > 256 | 8 (≈ 15.5 µM) | MIC [18, 29]: > 256 µg/mL; MIC (NDM-1 E. coli XJ141026 [19]; [29]): > 256 µg/mL; MIC [20, 29]: > 256 µg/mL; MIC (NDM-1 E. coli XJ141015 [22]; [29]): > 256 µg/mL; MIC [23, 29]: > 256 µg/mL; MIC (E. coli ATCC25922 [24]): 2 µg/mL (≈ 3.86 µM); MIC (NDM-1 E. coli XJ141047 [25]; [29]): > 256 µg/mL; MIC [26, 29]: > 256 µg/mL |
| CC(C)(O/N=C(\C(=O)N[C@@H]1C(=O)N2C(C(=O)[O-])=C(C[n+]3ccccc3)CS[C@H]12)c1csc(N)n1)C(=O)O [Ceftazidime] | > 16 | R | > 16 | R | > 16 | R | ≤ 1 | S | > 16 | R | > 16 | R | ≤ 1 | S | > 16 | R | > 16 | R | < 0.125 | < 0.125 | MIC [18]: > 256 µg/mL; MIC (NDM-1 E. coli XJ141026 [19]): > 256 µg/mL; MIC [20]: > 256 µg/mL; MIC (NDM-1 E. coli XJ141015 [22]): > 256 µg/mL; MIC [23]: > 256 µg/mL; MIC (E. coli ATCC25922 [24]): < 0.125 µg/mL; MIC (NDM-1 E. coli XJ141047 [25]): > 256 µg/mL; MIC [26]: > 256 µg/mL |
